# Data: PubChem BioAssay AID330 (DTP/NCI, 2004)
# Several values for one entry are separate records, joined by “and”; a condition that tells them apart may be missing. Equal entries are not always repeated. Toxic doses and inconclusive results are not listed.
# Tested on: P388 leukemia ip, CD2F1 mice, survival T/C
# Experiment: NCI In Vivo Anticancer Drug Screen. Data for tumor model P388 Leukemia (intraperitoneal) in CD2F1 (CDF1) mice
# Details: endpoint: median survival time, higher = longer survival
# Summary of the method: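 Mice carrying the transplanted tumor received test compound or vehicle. Survival was recorded in each group, and the value is the treated-group measurement divided by that of the vehicle-treated control group.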
# [1] = dose: 50.0 mg/kg/injection, schedule: Q01DX005 (ip), vehicle: saline with Tween-80
# [2] = dose: 100.0 mg/kg/injection, schedule: Q01DX005 (ip), vehicle: saline with Tween-80
# [3] = dose: 200.0 mg/kg/injection, schedule: Q01DX005 (ip), vehicle: saline with Tween-80
# [4] = dose: 60.0 mg/kg/injection, schedule: Q01DX005 (ip), vehicle: saline with Tween-80
# [5] = dose: 120.0 mg/kg/injection, schedule: Q01DX005 (ip), vehicle: saline with Tween-80
# [6] = dose: 240.0 mg/kg/injection, schedule: Q01DX005 (ip), vehicle: saline with Tween-80
# [7] = dose: 50.0 mg/kg/injection, schedule: Q01DX009 (ip), vehicle: saline with Tween-80
# [8] = dose: 100.0 mg/kg/injection, schedule: Q01DX009 (ip), vehicle: saline with Tween-80
# [9] = dose: 200.0 mg/kg/injection, schedule: Q01DX009 (ip), vehicle: saline with Tween-80
# [10] = dose: 25.0 mg/kg/injection, schedule: Q01DX009 (ip), vehicle: saline with Tween-80
structure (smiles),measurement,setting,value
ClC1=CC(Cl)=C2N=C(N3CCCC3)N=C3N=C(C(Cl)(Cl)Cl)N=C1N32,T/C,"dose: 60.0 mg/kg/injection, schedule: Q01DX005 (ip), vehicle: Klucel + Tween-80",96 % of control
same,T/C,"dose: 120.0 mg/kg/injection, schedule: Q01DX005 (ip), vehicle: Klucel + Tween-80",96 % of control
same,T/C,"dose: 240.0 mg/kg/injection, schedule: Q01DX005 (ip), vehicle: Klucel + Tween-80",87 % of control
CC(=O)C(=N/O)/C(C)=N/NC(=O)c1ccncc1,T/C,"dose: 100.0 mg/kg/injection, schedule: Q04DX002 (ip), vehicle: saline",106 % of control
same,T/C,"dose: 200.0 mg/kg/injection, schedule: Q04DX002 (ip), vehicle: saline",103 % of control
same,T/C,"dose: 400.0 mg/kg/injection, schedule: Q04DX002 (ip), vehicle: saline",102 % of control
CC(Oc1cc(Cl)c(Cl)cc1Cl)C(=O)NC(C(=O)O)C(C)C (centres undefined),T/C,[1],97 % of control and 100 % of control
same,T/C,[2],91 % of control and 106 % of control
same,T/C,[3],97 % of control and 111 % of control
CC(=O)NSCC(NC(=O)OC(C)(C)C)C(=O)O (centres undefined),T/C,[1],97 % of control
same,T/C,[2],102 % of control
same,T/C,[3],95 % of control
CC1CN=C(c2ccc(NC(=O)c3ccc(C(=O)Nc4ccc(C5=NCC(C)N5)cc4)c(N)c3)cc2)N1 (centres undefined),T/C,"dose: 0.5 mg/kg/injection, schedule: Q04DX003 (ip), vehicle: saline",100 % of control
same,T/C,"dose: 1.0 mg/kg/injection, schedule: Q04DX003 (ip), vehicle: saline",110 % of control
same,T/C,"dose: 2.0 mg/kg/injection, schedule: Q04DX003 (ip), vehicle: saline",120 % of control
same,T/C,"dose: 2.5 mg/kg/injection, schedule: Q01DX009 (ip), vehicle: saline with Tween-80",195 % of control
same,T/C,"dose: 5.0 mg/kg/injection, schedule: Q01DX009 (ip), vehicle: saline with Tween-80",255 % of control
same,T/C,"dose: 10.0 mg/kg/injection, schedule: Q01DX009 (ip), vehicle: saline with Tween-80",170 % of control
same,T/C,"dose: 10.0 mg/kg/injection, schedule: Q04DX003 (ip), vehicle: saline with Tween-80",159 % of control
Cc1cc(N/N=C/c2ccc(Br)cc2)c2cc3c(cc2n1)OCO3,T/C,"dose: 50.0 mg/kg/injection, schedule: Q01DX005 (ip), vehicle: Klucel (hydroxypropylcellulose) (HPC)",94 % of control
same,T/C,"dose: 100.0 mg/kg/injection, schedule: Q01DX005 (ip), vehicle: Klucel (hydroxypropylcellulose) (HPC)",96 % of control
same,T/C,"dose: 200.0 mg/kg/injection, schedule: Q01DX005 (ip), vehicle: Klucel (hydroxypropylcellulose) (HPC)",96 % of control
N[C@@H](Cc1c[nH]c2ccccc12)C(=O)Nc1nncs1,T/C,"dose: 18.75 mg/kg/injection, schedule: Q01DX005 (ip), vehicle: saline",100 % of control and 102 % of control
same,T/C,"dose: 37.5 mg/kg/injection, schedule: Q01DX005 (ip), vehicle: saline",98 % of control and 101 % of control
same,T/C,"dose: 50.0 mg/kg/injection, schedule: Q04DX002 (ip), vehicle: suspension in saline",100 % of control
same,T/C,"dose: 75.0 mg/kg/injection, schedule: Q01DX005 (ip), vehicle: saline",100 % of control and 101 % of control
same,T/C,"dose: 100.0 mg/kg/injection, schedule: Q04DX002 (ip), vehicle: suspension in saline",100 % of control
same,T/C,"dose: 150.0 mg/kg/injection, schedule: Q01DX005 (ip), vehicle: saline",99 % of control and 100 % of control
same,T/C,"dose: 200.0 mg/kg/injection, schedule: Q04DX002 (ip), vehicle: suspension in saline",99 % of control
same,T/C,"dose: 300.0 mg/kg/injection, schedule: Q01DX005 (ip), vehicle: saline",106 % of control and 109 % of control
same,T/C,"dose: 600.0 mg/kg/injection, schedule: Q04DX002 (ip), vehicle: saline",171 % of control
same,T/C,"dose: 800.0 mg/kg/injection, schedule: Q04DX002 (ip), vehicle: suspension in saline",151 % of control
OCCN1CCN(CC/C=C2/c3ccccc3Sc3ccc(C(F)(F)F)cc32)CC1,T/C,"dose: 10.0 mg/kg/injection, schedule: Q04DX003 (ip), vehicle: saline",115 % of control and 123 % of control
same,T/C,"dose: 20.0 mg/kg/injection, schedule: Q04DX003 (ip), vehicle: saline",115 % of control
same,T/C,"dose: 80.0 mg/kg/injection, schedule: Q04DX003 (ip), vehicle: saline",91 % of control
COc1cc(/C=C/C(=O)Sc2ccccc2)cc(OC)c1O,T/C,[4],109 % of control
same,T/C,[5],105 % of control
same,T/C,[6],100 % of control
CC(C)([NH-])CO.CC(C)([NH-])CO.[Cl][Cd][Cl],T/C,"dose: 3.13 mg/kg/injection, schedule: Q01DX009 (ip), vehicle: saline",91 % of control
same,T/C,"dose: 6.25 mg/kg/injection, schedule: Q01DX009 (ip), vehicle: saline",91 % of control
S=P(C1CCCCC1)(C1CCCCC1)C(c1cccnc1)N1CCCC1 (centres undefined),T/C,"dose: 50.0 mg/kg/injection, schedule: Q01DX009 (ip), vehicle: saline",104 % of control
same,T/C,"dose: 100.0 mg/kg/injection, schedule: Q01DX009 (ip), vehicle: saline",94 % of control
same,T/C,"dose: 200.0 mg/kg/injection, schedule: Q01DX009 (ip), vehicle: saline",87 % of control
O=[N+]([O-])c1ccc(N/N=C(\CI)c2ccccc2)c([N+](=O)[O-])c1,T/C,"dose: 75.0 mg/kg/injection, schedule: Q01DX001 (ip), vehicle: saline with Tween-80",105 % of control
same,T/C,"dose: 150.0 mg/kg/injection, schedule: Q01DX001 (ip), vehicle: saline with Tween-80",105 % of control
same,T/C,"dose: 300.0 mg/kg/injection, schedule: Q01DX001 (ip), vehicle: saline with Tween-80",120 % of control
CCOC(=O)N(CCN(C(=O)OCC)C1CCCCC1)C1CCCCC1,T/C,[4],99 % of control
same,T/C,"dose: 100.0 mg/kg/injection, schedule: Q04DX002 (ip), vehicle: saline with Tween-80",100 % of control
same,T/C,[5],99 % of control
same,T/C,"dose: 200.0 mg/kg/injection, schedule: Q04DX002 (ip), vehicle: saline with Tween-80",90 % of control
same,T/C,[6],89 % of control
same,T/C,"dose: 400.0 mg/kg/injection, schedule: Q04DX002 (ip), vehicle: saline with Tween-80",89 % of control
Cc1nc2cc(N(C)C)ccc2c(Cl)c1C(N)=O,T/C,"dose: 15.0 mg/kg/injection, schedule: Q01DX005 (ip), vehicle: Klucel (hydroxypropylcellulose) (HPC)",100 % of control
same,T/C,"dose: 30.0 mg/kg/injection, schedule: Q01DX005 (ip), vehicle: Klucel (hydroxypropylcellulose) (HPC)",99 % of control
same,T/C,"dose: 60.0 mg/kg/injection, schedule: Q01DX005 (ip), vehicle: Klucel (hydroxypropylcellulose) (HPC)",100 % of control and 96 % of control
[O-]/[N+](=C\c1ccccc1)CCO,T/C,[7],97 % of control
same,T/C,[8],101 % of control
same,T/C,[9],106 % of control
CCCCCCOCC(=O)OC,T/C,[7],103 % of control
same,T/C,[8],102 % of control
same,T/C,[9],102 % of control
COc1ccc(Cc2cc3c(cc2OCCOC(C)=O)OCO3)cc1,T/C,[1],110 % of control
same,T/C,[2],105 % of control
same,T/C,[3],103 % of control
CCOc1ccc(C(C#N)N(C)C)cc1OCC (centres undefined),T/C,"dose: 12.5 mg/kg/injection, schedule: Q01DX009 (ip), vehicle: saline with Tween-80",105 % of control
same,T/C,[10],100 % of control
same,T/C,[7],86 % of control and 92 % of control
COc1cccc2c1C(=O)c1c(O)c3c(c(O)c1C2=O)CC(O)(C(C)O)CC3OC1CCN(c2ccccc2)CC(C)O1 (centres undefined),T/C,"dose: 3.13 mg/kg/injection, schedule: Q04DX003 (ip), vehicle: distilled water + Tween-80",103 % of control
same,T/C,"dose: 6.25 mg/kg/injection, schedule: Q04DX003 (ip), vehicle: distilled water + Tween-80",100 % of control
same,T/C,"dose: 12.5 mg/kg/injection, schedule: Q04DX003 (ip), vehicle: distilled water + Tween-80",108 % of control
same,T/C,"dose: 25.0 mg/kg/injection, schedule: Q04DX003 (ip), vehicle: distilled water + Tween-80",105 % of control
same,T/C,"dose: 50.0 mg/kg/injection, schedule: Q04DX003 (ip), vehicle: distilled water + Tween-80",104 % of control
same,T/C,"dose: 100.0 mg/kg/injection, schedule: Q04DX003 (ip), vehicle: distilled water + Tween-80",105 % of control
same,T/C,"dose: 200.0 mg/kg/injection, schedule: Q04DX003 (ip), vehicle: distilled water + Tween-80",124 % of control
same,T/C,"dose: 400.0 mg/kg/injection, schedule: Q04DX003 (ip), vehicle: distilled water + Tween-80",101 % of control
CCCCCCCCCCCCCCCCCCN(C)C,T/C,"dose: 25.0 mg/kg/injection, schedule: Q01DX009 (ip), vehicle: Klucel (hydroxypropylcellulose) (HPC)",100 % of control
same,T/C,"dose: 50.0 mg/kg/injection, schedule: Q01DX009 (ip), vehicle: Klucel (hydroxypropylcellulose) (HPC)",101 % of control
CN(C)c1ccc(C(Cc2ccc3ccccc3n2)Cc2ccc3ccccc3n2)cc1,T/C,[1],99 % of control
same,T/C,[2],88 % of control
same,T/C,[3],89 % of control
N#CC1=C(C#N)C(=O)c2ccccc2C1=O,T/C,[10],104 % of control
same,T/C,[7],104 % of control
O=C1Nc2ccccc2NC(=O)C(=C(c2ccccc2)c2ccccc2)C1=C(c1ccccc1)c1ccccc1,T/C,[4],90 % of control
same,T/C,[5],89 % of control
same,T/C,[6],89 % of control
CC(C)(C)OC(=O)NC(Cc1c[nH]c2ccccc12)C(=O)ON1C(=O)CCC1=O (centres undefined),T/C,[10],97 % of control
same,T/C,[7],108 % of control
same,T/C,[8],110 % of control
same,T/C,[9],105 % of control
